In patent US20240099989A1, “AGENT FOR PREVENTING OR IMPROVING PERIPHERAL NEUROPATHY” (KINKI UNIVERSITY, priority 2021, published 2024):

Test system: Diabetic Peripheral Neuropathy in a Mouse Induced by Streptozotocin
Test: Cold plate test (4° C.), diabetic peripheral neuropathy induced by streptozotocin
Assay type: in vivo, C57BL/6J mice
Conditions: time course
Method: Six to seven-week-old male C57BL/6J mice were used for the tests as with Example 7. All the mice were acclimated for seven days after arrival. Then, the mice were grouped into the following four groups: a control group, a group receiving streptozotocin, a group receiving 1 mg/kg xylitol, and a group receiving streptozotocin+1 mg/kg xylitol. Each group consisted of nine mice.
The mice in the group receiving 1 mg/kg xylitol were orally administered with xylitol at a dose of 1 mg/kg daily from Day 0. The mice in the group receiving streptozotocin+1 mg/kg xylitol were orally administered with xylitol at a dose of 1 mg/kg daily from Day 21 of administration.
A cold plate test was performed to examine the effect due to xylitol on paresthesia that is caused by a low temperature stimulus. The mice in the four groups described in (1) of the present example (Example 8) were placed on a cold plate set at 4° C., and withdrawal response time (latent time) was measured. It is presumed that a shorter withdrawal response time (latent time) reflects a greater degree of shunning the low temperature stimulus by the cold plate. […]
On Day 8 of acclimation, the mice in the group receiving streptozotocin and the group receiving streptozotocin+5 mg/kg D-threitol were administered with streptozotocin at a dose of 200 mg/kg. A massive dose of streptozotocin destroys pancreatic cells in the mice. As a result, insulin is no longer secreted, and thus, diabetes can be developed in the mice. This day was designated as the first day of the administration (Day 0). Note that streptozotocin was administered only on the first day of administration.
The mice in the group receiving 5 mg/kg D-threitol and the group receiving streptozotocin+5 mg/kg D-threitol were orally administered with D-threitol at a dose of 5 mg/kg daily from Day 0. […]
The mice in the group receiving 5 mg/kg D-threitol were orally administered with D-threitol at a dose of 5 mg/kg daily from Day 0. The mice in the group receiving streptozotocin+5 mg/kg D-threitol were orally administered with D-threitol at a dose of 5 mg/kg daily from Day 21 of administration.
(§1) A cold plate test was performed to examine the effect of D-threitol on paresthesia that is caused by a low temperature stimulus. The mice in the four groups described in (1) of the present example (Example 10) were placed on a cold plate set at 4° C., and withdrawal response time (latent time) was measured. […]
as §1, with “L-talitol” for “D-threitol”, “11)” for “10)”

[1] = streptozotocin 200 mg/kg + 5 mg/kg orally daily from Day 21 (therapy)

| Structure (SMILES) | withdrawal response time (latent time) [1] | withdrawal response time (latent time) (streptozotocin 200 mg/kg + 1 mg/kg orally daily from Day 21 (therapy)) |
| --- | --- | --- |
| OC[C@@H](O)[C@H](O)CO [D-threitol] | extended from Day 21 onwards |  |
| OC[C@H](O)[C@H](O)[C@H](O)[C@@H](O)CO [L-talitol] | extended from Day 21 onwards |  |
| OC[C@@H](O)[C@H](O)[C@@H](O)CO [xylitol] |  | extended from Day 21 onwards |
